The values that follow come from US20040081973A1, “Cloning and characterization of a novel BK channel isoform highly expressed in glioma cells” (priority 2002, published 2004).

The subject of one test is Kca current. The settings on record: CEFs transformed with Rous sarcoma virus (Repp et al., 1993); cited from earlier work.
The next test concerns Kca. The settings on record: EGF and PDGF stimulation (Huang and Rane, 1994); cited from earlier work.
The target of test [1] is glioma BK (gBK) channel, novel splice variant of hSlo alpha-subunit (human) (UniProt Q12791). Description: cell-based or functional assay.
glioma BK (gBK) channel, novel splice variant of hSlo alpha-subunit (human), sequence (Q12791 other isoform, or with tags, fused parts or gaps mutant): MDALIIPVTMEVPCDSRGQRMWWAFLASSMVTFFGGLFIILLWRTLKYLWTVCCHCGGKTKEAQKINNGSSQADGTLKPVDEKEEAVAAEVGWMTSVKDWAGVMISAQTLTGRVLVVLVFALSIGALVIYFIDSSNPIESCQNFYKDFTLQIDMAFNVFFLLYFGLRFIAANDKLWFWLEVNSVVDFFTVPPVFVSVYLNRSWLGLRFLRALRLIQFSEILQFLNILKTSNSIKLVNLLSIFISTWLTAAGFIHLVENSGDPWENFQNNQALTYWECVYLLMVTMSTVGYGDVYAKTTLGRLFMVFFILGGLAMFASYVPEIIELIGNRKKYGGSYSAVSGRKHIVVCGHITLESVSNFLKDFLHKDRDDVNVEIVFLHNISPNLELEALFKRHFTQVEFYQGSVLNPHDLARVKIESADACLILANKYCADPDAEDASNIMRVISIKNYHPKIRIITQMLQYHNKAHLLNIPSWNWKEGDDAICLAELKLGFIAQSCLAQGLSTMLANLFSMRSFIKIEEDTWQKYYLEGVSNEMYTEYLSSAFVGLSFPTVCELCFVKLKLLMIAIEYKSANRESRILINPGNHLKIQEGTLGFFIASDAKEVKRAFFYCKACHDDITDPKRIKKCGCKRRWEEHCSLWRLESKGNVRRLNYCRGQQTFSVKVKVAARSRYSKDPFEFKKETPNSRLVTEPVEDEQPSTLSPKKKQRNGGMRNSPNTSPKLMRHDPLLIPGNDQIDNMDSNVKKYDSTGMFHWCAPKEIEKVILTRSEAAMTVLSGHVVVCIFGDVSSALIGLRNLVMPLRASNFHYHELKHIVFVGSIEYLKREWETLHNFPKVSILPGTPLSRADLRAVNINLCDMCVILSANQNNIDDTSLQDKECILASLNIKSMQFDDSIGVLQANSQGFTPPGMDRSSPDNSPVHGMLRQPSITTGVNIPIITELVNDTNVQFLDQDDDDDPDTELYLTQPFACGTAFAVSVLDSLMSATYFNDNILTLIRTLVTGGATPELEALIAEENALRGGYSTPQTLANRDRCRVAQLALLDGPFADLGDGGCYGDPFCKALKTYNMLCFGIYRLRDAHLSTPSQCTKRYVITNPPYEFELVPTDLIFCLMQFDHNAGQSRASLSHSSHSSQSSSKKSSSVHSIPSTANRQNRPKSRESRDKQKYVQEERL
In a further test the target is T1, hbr5 (Homo sapiens, UniProt Q12791).
T1 construct: expressed in transfected cells; host or cells: HEK cells
T1 sequence (Q12791 1-1207 isoform Q12791-4): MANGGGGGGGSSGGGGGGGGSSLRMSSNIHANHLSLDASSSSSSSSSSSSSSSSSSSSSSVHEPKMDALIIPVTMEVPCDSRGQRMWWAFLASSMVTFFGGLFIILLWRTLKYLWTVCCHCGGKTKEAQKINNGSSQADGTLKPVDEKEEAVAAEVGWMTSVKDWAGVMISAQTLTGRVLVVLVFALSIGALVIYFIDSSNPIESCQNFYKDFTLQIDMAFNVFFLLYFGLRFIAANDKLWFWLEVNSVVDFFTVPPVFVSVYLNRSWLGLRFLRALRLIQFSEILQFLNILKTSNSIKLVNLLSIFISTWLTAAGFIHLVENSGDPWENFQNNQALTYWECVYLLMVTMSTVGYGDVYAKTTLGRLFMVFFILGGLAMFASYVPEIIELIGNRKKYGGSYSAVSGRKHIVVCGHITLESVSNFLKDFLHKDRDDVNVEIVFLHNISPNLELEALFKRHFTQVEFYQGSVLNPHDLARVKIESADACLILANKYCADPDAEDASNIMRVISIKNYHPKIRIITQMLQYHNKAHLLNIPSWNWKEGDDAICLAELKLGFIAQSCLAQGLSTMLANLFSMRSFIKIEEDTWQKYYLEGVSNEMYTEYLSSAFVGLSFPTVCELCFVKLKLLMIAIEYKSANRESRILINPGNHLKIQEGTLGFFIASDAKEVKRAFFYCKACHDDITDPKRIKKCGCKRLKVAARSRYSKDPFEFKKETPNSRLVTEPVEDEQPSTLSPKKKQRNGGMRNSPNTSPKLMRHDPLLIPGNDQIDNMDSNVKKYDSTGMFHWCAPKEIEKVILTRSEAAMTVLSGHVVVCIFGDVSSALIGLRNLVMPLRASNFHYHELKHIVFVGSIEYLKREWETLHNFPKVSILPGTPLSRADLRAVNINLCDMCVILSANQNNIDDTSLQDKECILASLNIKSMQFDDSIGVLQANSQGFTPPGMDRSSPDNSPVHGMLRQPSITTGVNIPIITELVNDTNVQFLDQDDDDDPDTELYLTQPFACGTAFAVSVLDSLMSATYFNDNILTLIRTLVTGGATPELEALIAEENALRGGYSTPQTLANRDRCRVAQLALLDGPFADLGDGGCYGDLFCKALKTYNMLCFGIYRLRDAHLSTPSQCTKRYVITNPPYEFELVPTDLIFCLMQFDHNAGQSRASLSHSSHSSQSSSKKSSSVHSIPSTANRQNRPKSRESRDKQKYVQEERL
Description: Tetrandrine inhibition of hbr5 currents in outside-out patches from HEK cells transfected with hbr5. Format: cell-based. The settings on record: HEK293, 3 uM tetrandrine, voltage steps to +120 mV.

The next test has as its target T2, gBK (Homo sapiens, UniProt Q12791).
T2 construct: Outside-out patches were isolated from STTG-1 cells; endogenous in cells
Description: Tetrandrine inhibition of gBK currents in outside-out patches. Format: cell-based. The settings on record: 3 uM tetrandrine, voltage steps to +120 mV. The protocol:
Outside-out patches were isolated from STTG-1 cells and the voltage dependence of gBK currents were isolated with different [Ca^2+]i. Currents were integrated over the period of a voltage step and the average conductance was calculated from these areas (Ransom and Sontheimer, 2002). For each patch, 5-20 families of current traces over a range of voltages were obtained and the average conductance values at each membrane potential were determined. The normalized conductance was plotted as a function of membrane potential (activation curves) and fit to the Boltzman equation to obtain half-maximal voltages, V0.5. A total of 45 outside-out patches and their corresponding activation curves with [Ca^2+]i of 0 (10 mM EGTA added), 1.5×10−7 M and 2.1×10−6 M were determined. […] (FIGS. 11A and 11B). For comparison, the same set of experiments was performed on the hbr5 BK channel (Ransom and Sontheimer, 2002). V0.5 for hbr5 BK channel at [Ca^2+]i of 0 (10 mM EGTA added), 1.5×10−7 M and 2.1×10−6 M were +118 mV, +52 mV and −23 mV (FIGS. 12A and 12B).
If gBK channels are associated with β-subunits, then they should be sensitive to tetrandrine, a plant alkaloid. 3 uM tetrandrine has been reported to inhibit β-subunit-containing channels over 50%.

T2 sequence (Q12791 1-1239 isoform Q12791-7): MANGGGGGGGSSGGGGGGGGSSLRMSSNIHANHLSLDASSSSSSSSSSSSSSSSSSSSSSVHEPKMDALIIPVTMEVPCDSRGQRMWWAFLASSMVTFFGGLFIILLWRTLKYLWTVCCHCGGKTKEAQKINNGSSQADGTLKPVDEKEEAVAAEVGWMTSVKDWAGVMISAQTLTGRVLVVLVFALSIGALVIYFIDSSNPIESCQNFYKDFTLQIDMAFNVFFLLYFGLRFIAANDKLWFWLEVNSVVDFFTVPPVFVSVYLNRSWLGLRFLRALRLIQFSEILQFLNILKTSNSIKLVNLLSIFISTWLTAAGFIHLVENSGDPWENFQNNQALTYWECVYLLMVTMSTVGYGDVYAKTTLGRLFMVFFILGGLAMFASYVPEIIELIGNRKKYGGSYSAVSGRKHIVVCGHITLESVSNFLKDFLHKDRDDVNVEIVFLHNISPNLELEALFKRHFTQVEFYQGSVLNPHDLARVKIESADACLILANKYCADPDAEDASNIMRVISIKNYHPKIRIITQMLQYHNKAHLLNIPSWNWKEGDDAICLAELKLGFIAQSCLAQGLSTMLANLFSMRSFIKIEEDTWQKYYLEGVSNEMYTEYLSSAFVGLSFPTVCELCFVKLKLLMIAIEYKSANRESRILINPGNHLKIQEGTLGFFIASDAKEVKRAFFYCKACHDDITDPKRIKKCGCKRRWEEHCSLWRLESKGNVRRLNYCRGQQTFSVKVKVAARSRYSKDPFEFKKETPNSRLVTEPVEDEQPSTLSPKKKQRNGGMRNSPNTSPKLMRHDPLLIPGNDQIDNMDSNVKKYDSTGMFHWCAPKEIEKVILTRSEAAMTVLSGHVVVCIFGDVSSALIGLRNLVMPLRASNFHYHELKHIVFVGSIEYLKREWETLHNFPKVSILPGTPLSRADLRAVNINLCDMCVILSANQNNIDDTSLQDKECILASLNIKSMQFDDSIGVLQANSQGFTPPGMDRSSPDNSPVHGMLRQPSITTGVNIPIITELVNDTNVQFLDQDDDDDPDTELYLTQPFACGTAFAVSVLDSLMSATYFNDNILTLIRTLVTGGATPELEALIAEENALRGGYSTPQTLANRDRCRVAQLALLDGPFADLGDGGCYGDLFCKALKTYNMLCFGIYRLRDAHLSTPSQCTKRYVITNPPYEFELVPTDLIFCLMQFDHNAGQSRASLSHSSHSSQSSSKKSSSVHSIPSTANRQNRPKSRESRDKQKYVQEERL

In general, IC50 refers to the concentration that inhibits the measured activity by half. For charybdotoxin [ChTX], the IC50 in the test on Kca current was 0.019 µM. For the same compound, the “Effect on mitogenic stimulation” value with Kca is listed as “inhibited the stimulatory effect of the mitogen”.

In test [1], “iberiotoxin (IbTX) (from UniProt P24663 1-37) (peptide)” had an inhibition of total outward currents in gBK injected oocytes by 100 nM IbTX above 60%.

The inhibition is the drop in the measured response relative to a control, in per cent. Lower therefore signals little suppression. With `COc1ccc2cc1Oc1ccc(cc1)C[C@H]1c3cc(c(OC)cc3CCN1C)Oc1c(OC)c(OC)cc3c1[C@H](C2)N(C)CC3` [tetrandrine], the inhibition at 3 µM against hbr5 came to 14%; at gBK, 63%.

Consider `CC[N+](CC)(CC)CC` [TEA], for which, in the test on Kca current, the IC50 is 1800 µM.
